Assay results as given in patent US20220009894A1, “1,2,3,4-TETRAHYDROQUINOXALINE DERIVATIVE, PREPARATION METHOD THEREFOR AND APPLICATION THEREOF” (Abbisko Therapeutics Co., Ltd., priority 2019, published 2022).

Legend:
RORγt-LBD = biological target: T1, RORγt-LBD (Homo sapiens, UniProt P51449); test: Time-resolved fluorescence resonance energy-transfer assay (TR-FRET), co-activator peptide recruitment; assay type: biochemical; parameters: TR-FRET Biochemical Amax: unit not given here; conditions: for EC50: His-RORγt-LBD 30 nM, SRC peptide 500 nM, agonistic activity, averages of one or more measurements, read-out: TR-FRET Biochemical EC50/; for TR-FRET Biochemical Amax: upper activation limit, His-RORγt-LBD, SRC peptide
T1 sequence (P51449 269-508 limits assumed): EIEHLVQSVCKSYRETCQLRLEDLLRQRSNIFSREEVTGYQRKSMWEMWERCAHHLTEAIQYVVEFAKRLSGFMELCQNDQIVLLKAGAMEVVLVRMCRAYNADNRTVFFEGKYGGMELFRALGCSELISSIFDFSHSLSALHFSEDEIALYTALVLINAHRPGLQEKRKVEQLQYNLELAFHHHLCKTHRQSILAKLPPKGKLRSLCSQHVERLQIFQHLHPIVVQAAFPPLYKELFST
How it was run: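 This agonist-mode TR-FRET used 30 nM His-tagged RORγt-LBD, 500 nM biotinylated SRC peptide, 0.25 nM Eu-anti-His and 5 nM APC-streptavidin in pH 7.0 Tris/KCl buffer with DTT and Triton. A 7-concentration, 5-fold compound series was incubated at 4 °C overnight plus 1 h at room temperature, and the 665/615 nm signal was read.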

RORγt = biological target: T2, RORγt (Homo sapiens, UniProt P51449); test: RORγt cellular reporter gene detection assay; assay type: cell-based; conditions: 24 hrs; for EC50: HEK 293 cells co-transfected with pFN26A-RORγt-LBD and pG14.35, in presence of antagonist Ursolic acid, top concentration 50 μM; for Cellular Reporter Assay Amax: upper activation limit, HEK 293 cells, in presence of antagonist Ursolic acid;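 for Cellular Reporter Assay Amax: Ursolic Acid added as 5 µL of 20 µM medium per well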
T2 construct: The plasmid of pFN26A-RORγt-LBD and pG14.35 (Promega, Cat. No. E1370) were co-transfected into HEK 293 cells; expressed in transfected cells; host or cells: HEK 293 cells (Cat. No. GNHu18)
T2 sequence (P51449 269-508 limits assumed): T1 sequence (P51449 269-508 limits assumed)
How it was run: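 Compounds, titrated 4-fold from a 50 μM top concentration, were added with Ursolic acid to HEK293 cells carrying a RORγt-LBD plasmid and a reporter plasmid. After 24 h at 37° C, dual firefly/Renilla luciferase readout; four-parameter curves gave EC50 and maximal activation (Amax).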

SMILES | EC50 (RORγt-LBD) [nM] | TR-FRET Biochemical Amax (RORγt-LBD) | EC50 (RORγt) [nM] | Cellular Reporter Assay Amax (RORγt)
O=S(=O)(c1cccc(C(F)(F)F)c1)N1CC2CSCCN2c2ccc(-c3cc(F)cc(OC(F)F)c3)cc21 (stereo not shown) [Example 100, 8-(3-(difluoromethoxy)-5-fluorophenyl)-6-((3-(trifluoromethyl)phenyl)sulfonyl)-1,2,4,4a,5,6-hexahydro-[1,4]thiazino[4,3-a]quinoxaline] | 91.7 | 0.84 | 3450 | 4.3
O=S1(=O)CCN2c3ccc(-c4cc(F)cc(OC(F)F)c4)cc3N(S(=O)(=O)c3cccc(C(F)(F)F)c3)CC2C1 (stereo not shown) [Example 102, 8-(3-(difluoromethoxy)-5-fluorophenyl)-6-((3-(trifluoromethyl)phenyl)sulfonyl)-1,2,4,4a,5,6-hexahydro-[1,4]thiazino[4,3-a]quinoxaline 3,3-dioxide] | 809 | – | 2150 | –
O=S(=O)(c1cccc(C(F)(F)F)c1)N1C[C@@H]2CC(O)CCN2c2ccc(-c3cc(F)cc(OC(F)F)c3)cc21 (stereo partly drawn) [Example 105, (6aS)-3-(3-(difluoromethoxy)-5-fluorophenyl)-5-((3-(trifluoromethyl)phenyl)sulfonyl)-6,6a,7,8,9,10-hexahydro-5H-pyrido[1,2-a]quinoxalin-8-ol] | 170 | 0.69 | 955 | 4.8
O=C(O)COC1CCN2c3ccc(-c4cc(F)cc(OC(F)F)c4)cc3N(S(=O)(=O)c3cccc(C(F)(F)F)c3)C[C@@H]2C1 (stereo partly drawn) [Example 106, 2-(((6aS)-3-(3-(difluoromethoxy)-5-fluorophenyl)-5-((3-(trifluoromethyl)phenyl)sulfonyl)-6,6a,7,8,9,10-hexahydro-5H-pyrido[1,2-a]quinoxalin-8-yl)oxy)acetic acid] | 72.5 | 0.48 | 704 | 4.1
C[C@@]1(O)CCN2c3ccc(-c4cc(F)cc(OC(F)F)c4)cc3N(S(=O)(=O)c3cccc(C(F)(F)F)c3)C[C@@H]2C1 [Example 107, (6aS,8R)-3-(3-(difluoromethoxy)-5-fluorophenyl)-8-methyl-5-((3-(trifluoromethyl)phenyl)sulfonyl)-6,6a,7,8,9,10-hexahydro-5H-pyrido[1,2-a]quinoxalin-8-ol] | 98.3 | 1.31 | 643 | 3.0
C[C@]1(O)CCN2c3ccc(-c4cc(F)cc(OC(F)F)c4)cc3N(S(=O)(=O)c3cccc(C(F)(F)F)c3)C[C@@H]2C1 [Example 108, (6aS,8S)-3-(3-(difluoromethoxy)-5-fluorophenyl)-8-methyl-5-((3-(trifluoromethyl)phenyl)sulfo-nyl)-6,6a,7,8,9,10-hexa-hydro-5H-pyrido[1,2-a]quinoxalin-8-ol] | 55.4 | 0.99 | 1980 | 4.0
O=S(=O)(c1cccc(C(F)(F)F)c1)N1C[C@@H]2CC(O[C@@H]3O[C@H](CO)[C@@H](O)[C@H](O)[C@H]3O)CCN2c2ccc(-c3cc(F)cc(OC(F)F)c3)cc21 (stereo partly drawn) [Example 112, (2R,3R,4S,5S,6R)-2-(((6aS)-3-(3-(difluoromethoxy)-5-fluorophenyl)-5-((3-(trifluoromethyl)phenyl)sulfonyl)-6,6a,7,8,9,10-hexahydro-5H-pyrido[1,2-a]quinoxalin-8-yl)oxy)-6-(hydroxymethyl)tetrahydro-2H-pyran-3,4,5-triol] | 273 | 0.33 | 1940 | 5.6

Now those with a lower EC50 (RORγt-LBD), led by results:

EC50 (RORγt-LBD) [nM] | TR-FRET Biochemical Amax (RORγt-LBD) | EC50 (RORγt) [nM] | Cellular Reporter Assay Amax (RORγt) | SMILES
20.6 | 0.75 | 1540 | 5.4 | O=S(=O)(c1cccc(C(F)(F)F)c1)N1C[C@@H]2COCCN2c2ccc(-c3cc(F)cc(OC(F)F)c3)cc21 [Example 98, (R)-8-(3-(difluoromethoxy)-5-fluorophenyl)-6-((3-(trifluoromethyl)phenyl)sulfonyl)-1,2,4,4a,5,6-hexahydro-[1,4]oxazino[4,3-a]quinoxaline]
40.3 | 0.74 | 4840 | 6.3 | O=S(=O)(c1cccc(C(F)(F)F)c1)N1C[C@H]2COCCN2c2ccc(-c3cc(F)cc(OC(F)F)c3)cc21 [Example 99]
40.9 | 0.45 | 913 | 3.9 | O=S(=O)(c1cccc(C(F)(F)F)c1)N1CC2C[S+]([O-])CCN2c2ccc(-c3cc(F)cc(OC(F)F)c3)cc21 (stereo not shown) [Example 101, 8-(3-(difluoromethoxy)-5-fluorophenyl)-6-((3-(trifluoromethyl)phenyl)sulfonyl)-1,2,4,4a,5,6-hexahydro-[1,4]thiazino[4,3-a]quinoxaline 3-oxide]
41.1 | 0.49 | 1300 | 2.7 | O=S(=O)(c1cccc(C(F)(F)F)c1)N1C[C@@H]2CC(F)CCN2c2ccc(-c3cc(F)cc(OC(F)F)c3)cc21 (stereo partly drawn) [Example 103, (6aS)-3-(3-(difluoromethoxy)-5-fluorophenyl)-8-fluoro-5-((3-(trifluoromethyl)phenyl)sulfonyl)-6,6a,7,8,9,10-hexahydro-5H-pyrido[1,2-a]quinoxaline]
46.3 | 0.81 | 344 | 2.3 | NC(=O)OC1CCN2c3ccc(-c4cc(F)cc(OC(F)F)c4)cc3N(S(=O)(=O)c3cccc(C(F)(F)F)c3)C[C@@H]2C1 (stereo partly drawn) [Example 104, (6aS)-3-(3-(difluoromethoxy)-5-fluorophenyl)-5-((3-(trifluoromethyl)phenyl)sulfonyl)-6,6a,7,8,9,10-hexahydro-5H-pyrido[1,2-a]quinoxalin-8-yl carbamate]
17.5 | 0.65 | 468 | 5.9 | O=C(O)CCOC1CCN2c3ccc(-c4cc(F)cc(OC(F)F)c4)cc3N(S(=O)(=O)c3cccc(C(F)(F)F)c3)C[C@@H]2C1 (stereo partly drawn) [Example 109, 3-(((6aS)-3-(3-(difluoromethoxy)-5-fluorophenyl)-5-((3-(trifluoromethyl)phenyl)sulfonyl)-6,6a,7,8,9,10-hexahydro-5H-pyrido[1,2-a]quinoxalin-8-yl)oxy)propanoic acid]
12.1 | 0.76 | 214 | 2.8 | CS(=O)(=O)COC1CCN2c3ccc(-c4cc(F)cc(OC(F)F)c4)cc3N(S(=O)(=O)c3cccc(C(F)(F)F)c3)C[C@@H]2C1 (stereo partly drawn) [Example 110, (6aS)-3-(3-(difluoromethoxy)-5-fluorophenyl)-8-((methylsulfonyl)methoxy)-5-((3-(trifluoromethyl)phenyl)sulfonyl)-6,6a,7,8,9,10-hexahydro-5H-pyrido[1,2-a]quinoxaline]
18.9 | 0.64 | 564 | 3.2 | CS(=O)(=O)CCOC1CCN2c3ccc(-c4cc(F)cc(OC(F)F)c4)cc3N(S(=O)(=O)c3cccc(C(F)(F)F)c3)C[C@@H]2C1 (stereo partly drawn) [Example 111, (6aS)-3-(3-(difluoromethoxy)-5-fluorophenyl)-8-((methylsulfonyl)ethoxy)-5-((3-(trifluoromethyl)phenyl)sulfonyl)-6,6a,7,8,9,10-hexahydro-5H-pyrido[1,2-a]quinoxaline]
